According to ChEMBL document CHEMBL3886859, “Pyridine derivatives” (2016):

Columns and labels:
[1] = target: Cathepsin S (Homo sapiens, UniProt P25774); assay: (§1) Enzyme Inhibition Assay: Enzyme activity is measured by observing the increase in fluorescence intensity caused by cleavage of a peptide substrate containing a fluorophore whose emission is quenched in the intact peptide.Assay buffer: 100 mM potassium phosphate pH 6.5, EDTA-Na 5 mM, Triton X-100 0.001%, DTT 5 mM.Enzymes (all at 1 nM): human and mouse Cathepsin S, Cat K, Cat B, Cat L.Substrate (20 μM): Z-Val-Val-Arg-AMC, except for Cat K which uses Z-Leu-Arg-AMC (both from Bachem).Z=Benzyloxycarbonyl.AMC=7-Amino-4-Methyl-Coumarin.DTT=dithiothreitol.Final volume: 100 μL.Excitation 360 nm, Emission 465 nm.Enzyme is added to the substance dilutions in 96-well microtitre plates and the reaction is started with substrate. Fluorescence emission is measured over 20 minutes, during which time a linear increase is observed in the absence of inhibitor.
[2] = target: Procathepsin L (Homo sapiens, UniProt P07711); assay: as §1
Chain of Procathepsin L (P07711 whole entry): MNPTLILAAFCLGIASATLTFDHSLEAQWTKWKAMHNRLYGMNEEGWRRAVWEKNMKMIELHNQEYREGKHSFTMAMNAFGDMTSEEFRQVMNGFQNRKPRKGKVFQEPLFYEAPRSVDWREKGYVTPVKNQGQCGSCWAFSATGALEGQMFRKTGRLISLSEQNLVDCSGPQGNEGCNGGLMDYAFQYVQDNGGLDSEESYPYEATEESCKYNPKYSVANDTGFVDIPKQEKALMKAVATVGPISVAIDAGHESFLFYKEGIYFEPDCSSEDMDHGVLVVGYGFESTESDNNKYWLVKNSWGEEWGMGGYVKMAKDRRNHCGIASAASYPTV

Chain of Cathepsin S (P25774 whole entry): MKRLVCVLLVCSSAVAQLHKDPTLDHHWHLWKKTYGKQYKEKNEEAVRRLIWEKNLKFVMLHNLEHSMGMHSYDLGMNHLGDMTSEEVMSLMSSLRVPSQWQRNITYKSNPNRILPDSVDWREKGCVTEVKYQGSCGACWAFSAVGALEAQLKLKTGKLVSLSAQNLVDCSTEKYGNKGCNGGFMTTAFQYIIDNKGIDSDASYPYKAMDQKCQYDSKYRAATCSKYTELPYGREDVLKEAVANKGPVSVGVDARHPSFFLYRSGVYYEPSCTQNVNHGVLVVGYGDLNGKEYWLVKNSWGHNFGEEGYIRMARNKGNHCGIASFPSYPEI

IC50 [1] | IC50 [2] | Structure (SMILES)
1030 nM | > 25000 nM | N#CC1(NC(=O)[C@@H]2C[C@@H](Sc3ncc(C(F)(F)F)cc3Cl)CN2C(=O)C2(c3ncc(Cl)cc3F)CC2)CC1
0.543 nM | 56.8 nM | N#CC1(NC(=O)[C@@H]2C[C@@H](S(=O)(=O)c3cc(C(F)(F)F)ccc3Cl)CN2C(=O)C2(c3ncc(Cl)cc3F)CC2)CC1
0.474 nM | 72.6 nM | N#CC1(NC(=O)[C@@H]2C[C@@H](S(=O)(=O)c3ccc(Br)cc3Cl)CN2C(=O)C2(c3ncc(Cl)cc3F)CC2)CC1
